Results published in patent US20240316079A1, “USE OF AKR1C3-ACTIVATED COMPOUND” (OBI PHARMA, INC., priority 2021, published 2024).
Where two headings read alike, the source gives them in different places.

How the values were obtained:
[1] = test system: H460 cells; assay: Comet assay for DNA cross-linking; type: cell-based, human
Method: After seeding cells for 24 hours, the test articles were added at the indicated concentrations and incubated for 2 hours. Cells were washed twice to remove compound completely. 20 μmol/L of bleomycin was added and incubated for 1 hour under air to induce DNA strand breaks following 2 h cell resting. After washing twice with PBS, comet assay was conducted using a single-cell electrophoresis system from Trevigen (Gaithersburg, MD). The data were analyzed using Comet Assay IV software from Perceptive Instruments (29).
To evaluate whether 3424 cross-linked DNA, a direct biochemical assay for DNA cross-linking, the single-cell electrophoresis-based comet assay was employed using H460 cells. In this assay, the racemic mixture, 2870, was used. […] Bleomycin was used to induce DNA strand breaks which was evident by increased tail moment to 35. 2870-induced DNA cross-linking was tested using three concentrations under identical conditions that were used for bleomycin. Compound 2870-induced concentration-dependent DNA-crosslinking was evident by a decreased tail moment from 36 to 1.6.

[2] = test system: H460 cells; assay: Cytotoxicity in H460 cells in the absence or presence of AKR1C3 inhibitor 3021; conditions: Homo sapiens, NCI-H460, 2 h, read-out: IC50 (cytotoxicity)
Method: Exponentially growing cells were seeded 24 hours before the addition of test compounds. After addition of test compounds, the plates were incubated for the indicated hours at 37° C. in a standard tissue culture incubator. At the end of the experiment, the viable cells were detected using either a CellTiter Glo (CTG) assay kit or AlamarBlue^(28,29). […] For 3021 experiments, cells were pretreated with 3 μM of 3021 for 2 h prior to compound treatment under air. IC50 was calculated as described above.

[3] = biological target: T1, recombinant human AKR1C3 (Homo sapiens, UniProt P42330); assay: Kinetic analysis of AKR1C3 towards various substrates (NADPH absorbance 340 nm); type: biochemical; conditions: substrate of AKR1C3, 25° C., triplicate
T1 construct: purchased Abcam (Cambridge, MA)
T1 sequence (P42330 1-323): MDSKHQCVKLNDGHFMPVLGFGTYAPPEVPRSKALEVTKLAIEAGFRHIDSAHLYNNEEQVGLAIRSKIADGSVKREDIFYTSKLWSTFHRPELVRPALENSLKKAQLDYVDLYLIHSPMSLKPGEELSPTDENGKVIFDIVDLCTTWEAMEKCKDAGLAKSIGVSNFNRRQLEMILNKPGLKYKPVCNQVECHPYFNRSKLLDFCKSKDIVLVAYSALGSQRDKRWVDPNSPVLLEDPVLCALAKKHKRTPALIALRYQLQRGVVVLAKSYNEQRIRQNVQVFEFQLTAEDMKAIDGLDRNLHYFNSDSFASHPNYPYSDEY
Method: The reaction was incubated at 25° C. and terminated at various time points by adding acetonitrile and methanol (at a ratio of 9 to 1) and subjected for LC-MS/MS analysis. For enzyme kinetic analysis, the activity was determined with a SpectraMax M2^e spectrophotometer (Molecular Devices, LLC, San Jose, CA) by measuring the decrease in absorbance of the NADPH at 340 nm (E=6270 M^−1 cm^−1). After the initiation of the reaction by addition of substrates, the reactions were monitored at 30 s intervals at 25° C. The non-substrate reaction rate was also monitored as background and its slope was used to determine the initial velocity of the reaction. The kinetic data reported were the average of triplicate measurements.

[4] = test system: SNU-16 xenograft; conditions: 5-FU 30 mg/kg IP twice a week
Method: (§1) Death and observed clinical signs were recorded on the basis of the numbers of animals within each subset.

[5] = test system: HepG2 orthotopic xenograft; type: in vivo, mice; conditions: sorafenib 30 mg/kg orally, QD×5×7 cycles; no statistical significance
Method: (§2) In vivo anti-tumor activity of 3424 was evaluated using GFP-expressing cancer cell lines in an orthotopic liver cancer model (HepG2) and a subcutaneous lung cancer model (H460) CDX models at AntiCancer, Inc (Beijing, China). Female athymic nude mice (6 weeks; BALB/c-nu, Beijing HFK Bioscience Co., Ltd., Beijing, China) were used in the studies. Each mouse was implanted with a HepG2-GFP tumor chunk (˜1 mm^3 in diameter) in the right lobe of the liver for tumor development or inoculated subcutaneously with H460-GFP tumor chunk (˜1 mm^3 in diameter). About 3-10 days later, whole mouse body scan was performed using FluorVivo Model-100 fluorescence imager (INDEC Biosystems, Inc., Los Altos, CA). Mice with similar fluorescent areas were selected and randomly grouped. Both cell lines expressed high level of AKR1C3. Prodrug 3424 was dosed intravenously (IV) at 1.25, 2.5 mg/kg or 5 mg/kg Q7D×2 for the HepG2 orthotopic model or at 0.625, 1.25 or 2.5 mg/kg for the H460 xenograft model with a regimen of Q7D×2, 1 week off, then Q7D×2 again. Sorafenib was used as the positive control in the HepG2 model and was dosed orally at 30 mg/kg with a regimen of QD×5×7 cycles. Taxol was used as the positive control in the H460 model and was administered at 15 mg/kg IV with a regimen of BIW×4. During the experiments, mice were observed daily and body weight was measured twice a week. Tumor burden was monitored twice a week either by caliper measurement (H460) or FluorVivo fluorescence imager (H460-GFP and HepG2-GFP).

[6] = test system: A498 xenograft
Method: as §1

[7] = test system: H460 subcutaneous xenograft; type: in vivo, mice; conditions: paclitaxel 15 mg/kg IV BIW×4
Method: as §2

Work on `CC(OP(=O)(N1CC1)N1CC1)c1ccc([N+](=O)[O-])c(Oc2cccc(C(=O)N(C)C)c2)c1` (racemic) [Compound 2870, 1-(3-(3-N,N-dimethylaminocarbonyl)phenoxyl-4-mtrophenyl)-1-ethyl-N,N′-bis(ethylene)phosphoramidate] yielded a tail moment ([1]; 2870 at three concentrations, 2 hours, then bleomycin, decreased from 36, concentration-dependent DNA cross-linking) of 1.6 and an IC50 [2] of 4 nM.
`C[C@]12CCC(=O)C=C1CC[C@@H]1[C@@H]2CC[C@]2(C)C(=O)CC[C@@H]12` [4-Androstenedione, 4-androstenedione, reference compound] gave a Kcat [3] of 0.0012 ± 0.00017 s⁻¹ and a Km [3] of 1.98 ± 0.43 µM.
`C[C@]12CCC(=O)C[C@@H]1CC[C@@H]1[C@@H]2CC[C@]2(C)[C@@H](O)CC[C@@H]12` [5^α-DHT, dihydrotestosterone, reference compound] gave a Kcat [3] of 0.002 ± 0 s⁻¹ and a Km [3] of 10.2 ± 0.62 µM.
With `O=c1[nH]cc(F)c(=O)[nH]1` [Compound 5-FU, 5-fluorouracil, reference compound] the anti-tumor activity [4] was “no anti-tumor activity”.
With `C[C@@H](OP(=O)(N1CC1)N1CC1)c1ccc([N+](=O)[O-])c(Oc2cccc(C(=O)N(C)C)c2)c1` [Compound 3423, (R)-1-(3-(3-N,N-dimethylaminocarbonyl)phenoxyl-4-mtrophenyl)-1-ethyl-N,N′-bis(ethylene)phosphoramidate] the IC50 [2] was 5 nM, the Kcat [3] was 0.012 ± 0.00067 s⁻¹ and the Km ([3]; read-out: Km) was 12.9 ± 1.71 µM.
For `CNC(=O)c1cc(Oc2ccc(NC(=O)Nc3ccc(Cl)c(C(F)(F)F)c3)cc2)ccn1` [Sorafenib, reference compound], the “tumor growth reduction (TGI)” value [5] was 52.1%.
`Nc1ccn([C@@H]2O[C@H](CO)[C@@H](O)C2(F)F)c(=O)n1` [gemcitabine, reference compound] was tested, and the TGI ([6]; gemcitabine 80 mg/kg weekly IP for 4 doses) was 19%.
In the case of `CC(=O)O[C@H]1C(=O)[C@@]2(C)[C@H]([C@H](OC(=O)c3ccccc3)[C@]3(O)C[C@H](OC(=O)[C@H](O)[C@@H](NC(=O)c4ccccc4)c4ccccc4)C(C)=C1C3(C)C)[C@]1(OC(C)=O)CO[C@@H]1C[C@@H]2O` [paclitaxel, reference compound], the TGI [7] is reported as 64%.
`CCN(CC)CCNC(=O)c1c(C)[nH]c(/C=C2\C(=O)Nc3ccc(F)cc32)c1C` [sunitinib, reference compound] gave a TGI ([6]; sunitinib 25 mg/kg daily oral gavage) of 52%.
bleomycin [reference compound] was tested, and the tail moment ([1]; bleomycin used to induce DNA strand breaks (20 μmol/L, 1 hour)) was 35.
